Measured values as given in paper PMC5666424, “Marine-Derived 2-Aminoimidazolone Alkaloids. Leucettamine B-Related Polyandrocarpamines Inhibit Mammalian and Protozoan DYRK & CLK Kinases” (Marine Drugs, 2017).

Experiments:
Test in all cases: KinomeScan
Type in all cases: binding
Conditions in all cases: 1 μM
CDKL2 = target: T1, CDKL2 (Homo sapiens, UniProt Q92772)
T1 construct: purchased DiscoverX (KINOMEscan)

ZAP70 = target: T2, ZAP70 (Homo sapiens, UniProt P43403)
T2 construct: purchased DiscoverX (KINOMEscan)

TNK1 = target: T3, TNK1 (Homo sapiens, UniProt Q13470)
T3 construct: purchased DiscoverX (KINOMEscan)

SGK3 = target: T4, SGK3 (Homo sapiens, UniProt Q96BR1)
T4 construct: purchased DiscoverX (KINOMEscan)

LRRK2 = target: T5, LRRK2 (Homo sapiens, UniProt Q5S007)
T5 construct: purchased DiscoverX (KINOMEscan)

p38-alpha = target: T6, p38-alpha (Homo sapiens, UniProt Q16539)
T6 construct: purchased DiscoverX (KINOMEscan)

ULK1 = target: T7, ULK1 (Homo sapiens, UniProt O75385)
T7 construct: purchased DiscoverX (KINOMEscan)

TRPM6 = target: T8, TRPM6 (Homo sapiens, UniProt Q9BX84)
T8 construct: purchased DiscoverX (KINOMEscan)

ERK1 = target: T9, ERK1 (Homo sapiens, UniProt P27361)
T9 construct: purchased DiscoverX (KINOMEscan)

CSNK1G1 = target: T10, CSNK1G1 (Homo sapiens, UniProt Q9HCP0)
T10 construct: purchased DiscoverX (KINOMEscan)

ERK2 = target: T11, ERK2 (Homo sapiens, UniProt P28482)
T11 construct: purchased DiscoverX (KINOMEscan)

FGFR3(G697C) = target: T12, FGFR3(G697C) (Homo sapiens, UniProt P22607, G697C)
T12 construct: purchased DiscoverX (KINOMEscan)

EGFR(E746-A750del) = target: T13, EGFR(E746-A750del) (Homo sapiens, UniProt P00533, DEL746-750)
T13 construct: purchased DiscoverX (KINOMEscan)

MARK1 = target: T14, MARK1 (Homo sapiens, UniProt Q9P0L2)
T14 construct: purchased DiscoverX (KINOMEscan)

ASK1 = target: T15, ASK1 (Homo sapiens, UniProt Q99683)
T15 construct: purchased DiscoverX (KINOMEscan)

ABL1-nonphosphorylated = target: T16, ABL1-nonphosphorylated (Homo sapiens, UniProt P00519)
T16 construct: purchased DiscoverX (KINOMEscan)

AURKB = target: T17, AURKB (Homo sapiens, UniProt Q96GD4)
T17 construct: purchased DiscoverX (KINOMEscan)

SRPK2 = target: T18, SRPK2 (Homo sapiens, UniProt P78362)
T18 construct: purchased DiscoverX (KINOMEscan)

MARK2 = target: T19, MARK2 (Homo sapiens, UniProt Q7KZI7)
T19 construct: purchased DiscoverX (KINOMEscan)

[1] = target: T20, TYK2(JH2domain-pseudokinase) (Homo sapiens, UniProt P29597)
T20 construct: TYK2(JH2domain-pseudokinase); purchased DiscoverX (KINOMEscan)

[2] = target: T21, JAK3(JH1domain-catalytic) (Homo sapiens, UniProt P52333)
T21 construct: JAK3(JH1domain-catalytic); purchased DiscoverX (KINOMEscan)

TSSK1B = target: T22, TSSK1B (Homo sapiens, UniProt Q9BXA7)
T22 construct: purchased DiscoverX (KINOMEscan)

TRKA = target: T23, TRKA (Homo sapiens, UniProt P04629)
T23 construct: purchased DiscoverX (KINOMEscan)

FGFR2 = target: T24, FGFR2 (Homo sapiens, UniProt P21802)
T24 construct: purchased DiscoverX (KINOMEscan)

IKK-alpha = target: T25, IKK-alpha (Homo sapiens, UniProt O15111)
T25 construct: purchased DiscoverX (KINOMEscan)

CDC2L5 = target: T26, CDC2L5 (Homo sapiens, UniProt Q14004)
T26 construct: purchased DiscoverX (KINOMEscan)

IKK-epsilon = target: T27, IKK-epsilon (Homo sapiens, UniProt Q14164)
T27 construct: purchased DiscoverX (KINOMEscan)

DCAMKL2 = target: T28, DCAMKL2 (Homo sapiens, UniProt Q8N568)
T28 construct: purchased DiscoverX (KINOMEscan)

MRCKB = target: T29, MRCKB (Homo sapiens, UniProt Q9Y5S2)
T29 construct: purchased DiscoverX (KINOMEscan)

BRAF(V600E) = target: T30, BRAF(V600E) (Homo sapiens, UniProt P15056, V600E)
T30 construct: purchased DiscoverX (KINOMEscan)

EPHA6 = target: T31, EPHA6 (Homo sapiens, UniProt Q9UF33)
T31 construct: purchased DiscoverX (KINOMEscan)

MUSK = target: T32, MUSK (Homo sapiens, UniProt O15146)
T32 construct: purchased DiscoverX (KINOMEscan)

YANK3 = target: T33, YANK3 (Homo sapiens, UniProt Q86UX6)
T33 construct: purchased DiscoverX (KINOMEscan)

FAK = target: T34, FAK (Homo sapiens, UniProt Q05397)
T34 construct: purchased DiscoverX (KINOMEscan)

ERK4 = target: T35, ERK4 (Homo sapiens, UniProt P31152)
T35 construct: purchased DiscoverX (KINOMEscan)

DYRK1A = DYRK1A (Homo sapiens, UniProt Q13627)

T17 sequence (Q96GD4 whole entry): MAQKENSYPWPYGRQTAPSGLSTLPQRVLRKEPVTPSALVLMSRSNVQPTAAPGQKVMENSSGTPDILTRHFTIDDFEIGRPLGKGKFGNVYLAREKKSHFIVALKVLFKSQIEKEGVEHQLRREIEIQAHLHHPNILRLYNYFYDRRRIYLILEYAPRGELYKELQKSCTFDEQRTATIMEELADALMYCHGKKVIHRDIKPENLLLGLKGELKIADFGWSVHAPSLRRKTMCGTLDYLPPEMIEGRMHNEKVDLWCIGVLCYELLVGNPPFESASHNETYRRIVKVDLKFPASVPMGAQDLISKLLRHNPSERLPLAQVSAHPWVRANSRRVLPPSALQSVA
T10 sequence (Q9HCP0 whole entry): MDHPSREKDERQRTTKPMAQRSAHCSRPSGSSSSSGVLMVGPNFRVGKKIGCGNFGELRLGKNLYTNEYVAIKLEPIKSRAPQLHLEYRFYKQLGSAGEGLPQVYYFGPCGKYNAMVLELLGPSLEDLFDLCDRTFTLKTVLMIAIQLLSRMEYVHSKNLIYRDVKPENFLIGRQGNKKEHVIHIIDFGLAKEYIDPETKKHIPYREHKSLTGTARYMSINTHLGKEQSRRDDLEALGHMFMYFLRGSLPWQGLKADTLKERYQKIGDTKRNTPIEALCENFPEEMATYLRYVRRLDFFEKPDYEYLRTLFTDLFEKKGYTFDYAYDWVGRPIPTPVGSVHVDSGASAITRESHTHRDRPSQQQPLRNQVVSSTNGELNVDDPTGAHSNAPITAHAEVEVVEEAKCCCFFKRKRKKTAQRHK
T34 sequence (Q05397 whole entry): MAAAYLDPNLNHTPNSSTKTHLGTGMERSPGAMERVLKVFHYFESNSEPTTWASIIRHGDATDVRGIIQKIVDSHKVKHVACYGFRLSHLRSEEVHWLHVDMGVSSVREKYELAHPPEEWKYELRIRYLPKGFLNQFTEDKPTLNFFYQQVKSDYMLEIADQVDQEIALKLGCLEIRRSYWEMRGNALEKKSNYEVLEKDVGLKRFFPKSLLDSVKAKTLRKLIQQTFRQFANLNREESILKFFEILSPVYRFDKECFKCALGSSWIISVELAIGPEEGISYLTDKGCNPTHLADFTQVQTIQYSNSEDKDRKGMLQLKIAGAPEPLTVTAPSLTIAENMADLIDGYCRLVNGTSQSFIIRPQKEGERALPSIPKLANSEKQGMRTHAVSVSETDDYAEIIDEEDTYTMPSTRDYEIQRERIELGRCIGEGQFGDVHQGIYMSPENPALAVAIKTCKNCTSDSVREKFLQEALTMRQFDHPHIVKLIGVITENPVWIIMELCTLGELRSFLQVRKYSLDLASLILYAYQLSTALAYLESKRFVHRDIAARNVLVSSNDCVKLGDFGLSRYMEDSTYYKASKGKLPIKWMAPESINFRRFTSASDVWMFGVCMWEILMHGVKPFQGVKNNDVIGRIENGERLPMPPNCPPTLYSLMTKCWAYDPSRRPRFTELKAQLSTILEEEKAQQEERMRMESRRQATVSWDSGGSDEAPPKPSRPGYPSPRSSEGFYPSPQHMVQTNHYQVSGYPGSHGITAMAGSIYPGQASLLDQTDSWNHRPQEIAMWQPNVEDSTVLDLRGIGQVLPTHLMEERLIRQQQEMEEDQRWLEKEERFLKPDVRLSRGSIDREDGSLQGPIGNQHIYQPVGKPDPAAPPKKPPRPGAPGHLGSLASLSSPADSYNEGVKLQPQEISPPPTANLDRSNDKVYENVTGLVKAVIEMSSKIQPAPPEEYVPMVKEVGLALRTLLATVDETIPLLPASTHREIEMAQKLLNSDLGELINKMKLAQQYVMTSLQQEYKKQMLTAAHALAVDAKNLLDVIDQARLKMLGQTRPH
T23 sequence (P04629 33-796): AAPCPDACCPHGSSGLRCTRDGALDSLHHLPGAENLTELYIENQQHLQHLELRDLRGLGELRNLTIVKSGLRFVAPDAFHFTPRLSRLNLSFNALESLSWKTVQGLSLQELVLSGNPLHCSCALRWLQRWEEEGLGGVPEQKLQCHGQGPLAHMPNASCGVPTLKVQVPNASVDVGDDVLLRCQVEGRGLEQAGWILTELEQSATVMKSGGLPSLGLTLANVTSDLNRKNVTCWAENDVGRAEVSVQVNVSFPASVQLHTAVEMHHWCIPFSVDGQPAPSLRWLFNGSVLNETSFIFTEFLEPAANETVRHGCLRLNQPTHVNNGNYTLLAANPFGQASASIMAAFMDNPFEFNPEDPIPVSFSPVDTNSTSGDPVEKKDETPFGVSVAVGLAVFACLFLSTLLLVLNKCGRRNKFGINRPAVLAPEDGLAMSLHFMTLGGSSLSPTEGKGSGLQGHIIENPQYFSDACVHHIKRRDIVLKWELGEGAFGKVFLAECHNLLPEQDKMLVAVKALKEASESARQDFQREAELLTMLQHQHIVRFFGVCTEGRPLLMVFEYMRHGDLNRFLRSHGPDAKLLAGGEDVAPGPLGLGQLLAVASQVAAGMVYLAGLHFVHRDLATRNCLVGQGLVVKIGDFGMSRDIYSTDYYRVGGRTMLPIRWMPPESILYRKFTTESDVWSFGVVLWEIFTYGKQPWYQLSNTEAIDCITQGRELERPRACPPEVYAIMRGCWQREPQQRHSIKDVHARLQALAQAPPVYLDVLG
T32 sequence (O15146 24-869): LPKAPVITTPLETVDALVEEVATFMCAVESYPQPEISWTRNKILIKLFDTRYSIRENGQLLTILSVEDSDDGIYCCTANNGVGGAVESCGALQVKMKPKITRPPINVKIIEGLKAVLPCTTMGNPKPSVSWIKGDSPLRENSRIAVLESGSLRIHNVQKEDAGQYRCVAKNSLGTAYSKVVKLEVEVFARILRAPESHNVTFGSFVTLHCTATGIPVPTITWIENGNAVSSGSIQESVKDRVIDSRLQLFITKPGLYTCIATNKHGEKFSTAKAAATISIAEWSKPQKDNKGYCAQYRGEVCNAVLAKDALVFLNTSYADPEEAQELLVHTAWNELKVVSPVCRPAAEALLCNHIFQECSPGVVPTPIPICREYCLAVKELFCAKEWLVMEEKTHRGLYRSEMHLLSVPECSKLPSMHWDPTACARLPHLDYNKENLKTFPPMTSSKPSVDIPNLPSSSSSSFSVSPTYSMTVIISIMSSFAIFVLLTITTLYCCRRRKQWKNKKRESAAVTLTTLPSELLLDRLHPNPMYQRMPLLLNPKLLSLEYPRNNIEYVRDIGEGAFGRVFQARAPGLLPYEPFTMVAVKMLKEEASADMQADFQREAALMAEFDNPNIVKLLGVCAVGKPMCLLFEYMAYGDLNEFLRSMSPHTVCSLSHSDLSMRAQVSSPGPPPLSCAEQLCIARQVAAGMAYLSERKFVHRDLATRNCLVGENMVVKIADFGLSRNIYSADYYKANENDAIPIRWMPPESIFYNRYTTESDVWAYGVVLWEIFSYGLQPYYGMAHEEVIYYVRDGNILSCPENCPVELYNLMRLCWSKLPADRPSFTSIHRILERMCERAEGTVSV
T18 sequence (P78362 whole entry): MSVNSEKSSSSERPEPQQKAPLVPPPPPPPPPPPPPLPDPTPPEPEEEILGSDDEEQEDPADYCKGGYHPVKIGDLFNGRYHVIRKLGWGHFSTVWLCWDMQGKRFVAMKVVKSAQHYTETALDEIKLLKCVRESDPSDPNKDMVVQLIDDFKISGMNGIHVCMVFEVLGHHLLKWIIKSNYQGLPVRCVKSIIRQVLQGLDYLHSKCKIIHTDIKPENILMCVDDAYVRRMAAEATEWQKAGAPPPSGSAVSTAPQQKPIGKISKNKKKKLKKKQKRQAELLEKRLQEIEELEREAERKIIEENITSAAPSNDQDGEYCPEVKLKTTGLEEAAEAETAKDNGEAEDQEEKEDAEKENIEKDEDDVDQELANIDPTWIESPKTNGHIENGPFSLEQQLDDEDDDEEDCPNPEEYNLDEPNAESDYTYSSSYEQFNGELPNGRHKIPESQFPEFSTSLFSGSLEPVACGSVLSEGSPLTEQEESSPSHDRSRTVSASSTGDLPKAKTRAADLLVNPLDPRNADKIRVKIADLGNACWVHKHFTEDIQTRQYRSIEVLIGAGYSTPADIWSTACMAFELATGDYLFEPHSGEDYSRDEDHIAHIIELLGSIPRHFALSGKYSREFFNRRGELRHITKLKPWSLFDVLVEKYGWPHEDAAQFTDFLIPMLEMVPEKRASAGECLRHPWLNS
T24 sequence (P21802 22-821): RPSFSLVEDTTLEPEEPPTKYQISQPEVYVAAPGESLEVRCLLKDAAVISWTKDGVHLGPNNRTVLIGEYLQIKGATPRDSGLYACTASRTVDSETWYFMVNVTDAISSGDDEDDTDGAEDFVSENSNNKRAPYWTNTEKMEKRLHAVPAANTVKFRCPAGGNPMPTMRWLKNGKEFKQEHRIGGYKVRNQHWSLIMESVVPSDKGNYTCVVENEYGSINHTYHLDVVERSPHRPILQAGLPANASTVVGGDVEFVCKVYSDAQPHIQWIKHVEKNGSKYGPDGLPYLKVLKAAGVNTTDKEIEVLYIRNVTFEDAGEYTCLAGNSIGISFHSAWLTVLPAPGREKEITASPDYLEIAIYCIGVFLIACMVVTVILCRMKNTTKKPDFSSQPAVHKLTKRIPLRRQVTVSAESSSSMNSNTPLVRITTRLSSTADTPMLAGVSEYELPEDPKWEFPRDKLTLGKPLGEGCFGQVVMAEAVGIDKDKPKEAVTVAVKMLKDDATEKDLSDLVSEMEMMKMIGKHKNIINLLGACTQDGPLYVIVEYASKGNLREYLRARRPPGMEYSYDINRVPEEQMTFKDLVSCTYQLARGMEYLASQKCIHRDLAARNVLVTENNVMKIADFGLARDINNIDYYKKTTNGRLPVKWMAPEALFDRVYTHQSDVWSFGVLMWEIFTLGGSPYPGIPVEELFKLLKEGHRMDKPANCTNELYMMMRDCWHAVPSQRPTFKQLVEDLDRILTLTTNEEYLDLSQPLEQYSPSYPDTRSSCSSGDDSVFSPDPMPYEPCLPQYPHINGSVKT

In the case of COc1cc(/C=C2\N=C(N)NC2=O)ccc1O [Polyandrocarpamine A], the Score (CDKL2) was 100, the Score (ZAP70) was 100 and the Score (TNK1) was 100. It also gave a Score (SGK3) of 100, a Score (LRRK2) of 100 and a Score (p38-alpha) of 100. It also gave a Score (ULK1) of 94, a Score (TRPM6) of 100 and a Score (ERK1) of 100. It also gave a Score (CSNK1G1) of 100, a Score (ERK2) of 100 and a Score (FGFR3(G697C)) of 83. The Score (EGFR(E746-A750del)) was 100, the Score (MARK1) was 100 and the Score (ASK1) was 100. For the same molecule, the Score (ABL1-nonphosphorylated) was 90, the Score (AURKB) was 100 and the Score (SRPK2) was 100. The Score (MARK2) was 100, the Score [1] was 100 and the Score [2] was 84. For the same molecule, the Score (TSSK1B) was 100, the Score (TRKA) was 95 and the Score (FGFR2) was 100. For the same molecule, the Score (IKK-alpha) was 100, the Score (CDC2L5) was 100 and the Score (IKK-epsilon) was 89. The Score (DCAMKL2) was 100, the Score (MRCKB) was 100 and the Score (BRAF(V600E)) was 96. For the same molecule, the Score (EPHA6) was 100, the Score (MUSK) was 56 and the Score (YANK3) was 100. For the same molecule, the Score (FAK) was 94, the Score (ERK4) was 100 and the Score (DYRK1A) was 3.
